Patent publication US12297294B2, “Cortistatin analogues for the treatment of inflammatory and/or immune diseases” (BCN PEPTIDES, S.A., priority 2013, dated 2025)
Values belong to the molecule of their own block, whether it stands above or below them. Where a SMILES comes first, the peptide text is derived from it. Bridges are numbered along the chain shown (N, C = ends). [ ]: non-standard residue; d: D form. The star is where a group is joined. Phe(2,4,6-Me3) = Cc1cc(C)c(C[C@H](N)C(=O)O)c(C)c1; Phe(3,5-F2) = N[C@@H](Cc1cc(F)cc(F)c1)C(=O)O; Myristoyl = CCCCCCCCCCCCCC(=O)*; Octanoyl = CCCCCCCC(=O)*

Key:
[1] = Serum stability in 90% human serum at 37° C., RP-HPLC; type: in vitro ADME; conditions: for main metabolite in serum: loss of C-terminal Lys
Method: The new compounds were incubated with 90% human serum at 37° C. Aliquots were extracted at different incubation times. Methanol was added to precipitate the proteins from the serum, it was centrifuged and the supernatant was subject to a chromatographic analysis using RP-HPLC (Gradient: 20-80% B in 30 min, B=0.07% TFA in acetonitrile). The disappearance of the initial product was analyzed using the area corresponding to the initial product and half-life time was calculated.

Raw 264 cells = assay: Inflammatory response in vitro: LPS-stimulated Raw 264 cells, cytokines (ELISA) and NO (Griess); type: cell-based; conditions: LPS 1 μg/ml, peptide 100 nM, 24 hours; for NO (nitric oxide) level in supernatant: Griess test, basal 0.44; for IL-6 level in supernatant: basal 0; for TNFalpha level in supernatant: basal 0.48
Method: Raw 264 cells were cultured in complete DMEM medium until a confluence of 80% was reached. The cells were incubated either in the absence or presence of lipopolysaccharide (LPS, 1 μg/ml, from E. coli serotype 055:B5). The cells incubated in the absence of lipopolysaccharide were used as a reference (basal). The new cortistatin analogues were added at 100 nM concentration at the start of the culture. After 24 hours, the supernatants were collected and cytokine and nitric oxide levels were measured. The cytokine level (TNFalpha and IL-6) was established using a ELISA test. The quantity of nitric oxide (NO) was established using the Griess test. Equal volumes of supernatants from the culture (90 μl) and Griess reagents were mixed and absorbance was measured at 550 nm. The nitrite amount was calculated in relation to a standard NaNO2 curve.
For comparison, the values of cortistatin-14 (CST-14), somatostatin-14 (SOM-14) and three somatostatin analogues described in WO 2010/128098 A1 were evaluated: […]

T cells (splenocytes) = assay: Immune response in vitro: anti-CD3 stimulated splenocyte T cells, proliferation and cytokines; type: cell-based, C57B1I/6 mice; conditions: anti-CD3 2 μg/ml, peptide 100 nM; for INFγ level in supernatant / IL-2 level in supernatant: 48 hours; for INFγ level in supernatant: activated 2.52, basal 0; for IL-2 level in supernatant: activated 3.22, basal 0.23; for proliferation ([3H]-thymidine incorporation): 72 hours, activated 9843, basal 640
Method: Splenocytes from 8 week old male C57B1I/6 mice were obtained after mechanical dissociation of cells, filtration through a nylon mesh and lysis of red blood cells. The splenocytes were incubated in complete DMEM medium until a density of 10^6 cells/ml. The non-adherent cells (formed in 80% by T cells) were used for measuring cytokines and for proliferation assays. The T cells were cultured in complete DMEM medium and stimulated with anti-CD3 antibodies (2 μg/ml) in the presence of different cortistatin analogues at a concentration of 100 nM. After 48 hours, the supernatants of the culture were isolated and the levels of cytokines (IFNγ and IL-2) were determined by using an ELISA test. In order to determine the effect of the different cortistatin analogues in proliferation, the cells were cultured for 72 hours and 0.5 μCi (0.0185 MBq)/well of [^3H]— thymidine was added for the last 8 hours of culture, the membranes were collected and the added [^3H]-Thymidine was measured using a scintillation counter.
For comparison, the values of cortistatin-14 (CST-14), somatostatin-14 (SOM-14) and three somatostatin analogues described in WO 2010/128098 A1 were determined: […]

[2] = molecular target: T1, somatostatin receptor sstr5 (UniProt P35346 1-364, limits assumed); assay: radioligand competition vs 125I-Tyr11-somatostatin 14, CHO-K1 cells expressing sstr5, 0.1 nM to 10 uM
T1 construct: whole, on cells
T1 sequence (P35346 whole entry): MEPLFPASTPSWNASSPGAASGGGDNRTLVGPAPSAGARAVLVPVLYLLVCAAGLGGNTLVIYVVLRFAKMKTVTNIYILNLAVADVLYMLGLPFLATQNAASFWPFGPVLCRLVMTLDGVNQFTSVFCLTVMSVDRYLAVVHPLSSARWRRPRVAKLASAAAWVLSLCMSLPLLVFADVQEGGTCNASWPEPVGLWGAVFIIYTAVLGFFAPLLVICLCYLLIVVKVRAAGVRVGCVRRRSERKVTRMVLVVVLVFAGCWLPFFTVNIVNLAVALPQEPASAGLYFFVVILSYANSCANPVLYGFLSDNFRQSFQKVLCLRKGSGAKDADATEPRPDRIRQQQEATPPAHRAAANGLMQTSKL
Method: (§1) CHO-K1 cells in which each of the 5 somatostatin receptors (sstr1-sstr5) were expressed independently were used. […] The radioactivity obtained in the absence of somatostatin-14 was considered as the total binding and that obtained in the presence of 1 μM of somatostatin-14 was considered as the non-specific bond. The specific binding was considered as the difference between the complete binding and the non-specific binding.

[3] = molecular target: T2, somatostatin receptor sstr2 (UniProt P30874 1-369, limits assumed); assay: radioligand competition vs 125I-Tyr11-somatostatin 14, CHO-K1 cells expressing sstr2, 0.1 nM to 10 uM
T2 construct: whole, on cells
T2 sequence (P30874 whole entry): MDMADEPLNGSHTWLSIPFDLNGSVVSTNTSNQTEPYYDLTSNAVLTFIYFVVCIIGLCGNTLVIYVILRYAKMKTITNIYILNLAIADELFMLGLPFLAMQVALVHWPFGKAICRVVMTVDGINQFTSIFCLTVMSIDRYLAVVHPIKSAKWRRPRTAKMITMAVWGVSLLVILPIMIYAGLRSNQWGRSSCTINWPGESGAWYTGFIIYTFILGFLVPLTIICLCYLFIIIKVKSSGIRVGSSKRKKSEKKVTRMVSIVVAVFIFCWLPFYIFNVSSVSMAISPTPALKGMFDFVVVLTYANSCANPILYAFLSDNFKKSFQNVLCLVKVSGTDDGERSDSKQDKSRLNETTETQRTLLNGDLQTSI
Method: as §1

[4] = molecular target: T3, somatostatin receptor sstr3 (UniProt P32745 1-418, limits assumed); assay: radioligand competition vs 125I-Tyr11-somatostatin 14, CHO-K1 cells expressing sstr3, 0.1 nM to 10 uM
T3 construct: whole, on cells
T3 sequence (P32745 whole entry): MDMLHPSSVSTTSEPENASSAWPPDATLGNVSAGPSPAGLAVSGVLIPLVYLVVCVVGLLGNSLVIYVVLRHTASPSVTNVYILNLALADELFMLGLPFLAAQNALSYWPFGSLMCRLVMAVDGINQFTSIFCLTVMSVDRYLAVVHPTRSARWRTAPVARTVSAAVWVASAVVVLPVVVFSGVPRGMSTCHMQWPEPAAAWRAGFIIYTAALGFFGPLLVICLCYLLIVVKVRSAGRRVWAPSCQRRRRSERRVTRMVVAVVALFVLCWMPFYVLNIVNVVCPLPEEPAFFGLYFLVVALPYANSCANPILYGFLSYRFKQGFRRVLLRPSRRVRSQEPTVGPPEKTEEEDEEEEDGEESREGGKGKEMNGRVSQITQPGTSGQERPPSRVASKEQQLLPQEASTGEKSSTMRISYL
Method: as §1

[5] = molecular target: T4, somatostatin receptor sstr1 (UniProt P30872 1-391, limits assumed); assay: radioligand competition vs 125I-Tyr11-somatostatin 14, CHO-K1 cells expressing sstr1, 0.1 nM to 10 uM
T4 construct: whole, on cells
T4 sequence (P30872 whole entry): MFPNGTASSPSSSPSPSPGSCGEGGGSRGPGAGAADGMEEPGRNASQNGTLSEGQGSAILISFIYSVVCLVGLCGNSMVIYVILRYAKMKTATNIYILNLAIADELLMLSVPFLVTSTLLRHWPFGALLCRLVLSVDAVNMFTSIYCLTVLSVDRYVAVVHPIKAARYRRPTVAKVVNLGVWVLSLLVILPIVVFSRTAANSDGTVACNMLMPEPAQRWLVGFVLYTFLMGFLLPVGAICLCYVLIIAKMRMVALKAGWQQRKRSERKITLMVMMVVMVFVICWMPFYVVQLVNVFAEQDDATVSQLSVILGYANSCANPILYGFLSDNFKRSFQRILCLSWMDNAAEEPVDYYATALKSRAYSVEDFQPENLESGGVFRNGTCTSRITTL
Method: as §1

- main metabolite in serum [1]: compound 14
Molecule: C[C@@H](O)[C@@H]1NC(=O)[C@H](CCCCN)NC(=O)[C@H](Cc2c[nH]c3ccccc23)NC(=O)[C@H](Cc2ccccc2)NC(=O)[C@H](Cc2ccccc2)NC(=O)[C@H](CC(N)=O)NC(=O)[C@H](CCCCN)NC(=O)[C@@H](NC(=O)[C@@H]2CCCN2)CSSC[C@@H](C(=O)N[C@@H](CCCCN)C(=O)O)NC(=O)[C@H](CO)NC(=O)[C@H](CO)NC(=O)[C@H](Cc2ccccc2)NC1=O [CST-14] (H-PCKNFFWKTFSSCK-OH; disulfide 2-13)
- NO (nitric oxide) level in supernatant (Raw 264 cells): 3.08 ng/mL
- IL-6 level in supernatant (Raw 264 cells): 3.78 ng/mL
- TNFalpha level in supernatant (Raw 264 cells): 3.17 ng/mL
- INFγ level in supernatant (T cells (splenocytes)): 1.13 ng/mL
- IL-2 level in supernatant (T cells (splenocytes)): 1.52 ng/mL
- proliferation ([3H]-thymidine incorporation) (T cells (splenocytes)): 5500

- half-life [1]: 0.35 h
- main metabolite in serum [1]: compound 5
Molecule: CCCCCCCC(=O)N1CCC[C@H]1C(=O)N[C@H]1CSSC[C@@H](C(=O)N[C@@H](CCCCN)C(=O)O)NC(=O)[C@H](CO)NC(=O)[C@H]([C@@H](C)O)NC(=O)[C@H](Cc2ccccc2)NC(=O)[C@H]([C@@H](C)O)NC(=O)[C@H](CCCCN)NC(=O)[C@@H](Cc2c[nH]c3ccccc23)NC(=O)[C@H](Cc2ccccc2)NC(=O)[C@H](Cc2c(C)cc(C)cc2C)NC(=O)[C@H](CC(N)=O)NC(=O)[C@H](CCCCN)NC1=O [Compound 4, Octanoyl-L-Pro-c[L-Cys-L-Lys-L-Asn-L-Msa-L-Phe-D-Trp-L-Lys-L-Thr-L-Phe-L-Thr-L-Ser-L-Cys-]-L-Lys-OH]

- half-life [1]: 35 h
Molecule: CCCCCCCC(=O)N1CCC[C@H]1C(=O)N[C@H]1CSSC[C@@H](C(=O)O)NC(=O)[C@H](CO)NC(=O)[C@H]([C@@H](C)O)NC(=O)[C@H](Cc2ccccc2)NC(=O)[C@H]([C@@H](C)O)NC(=O)[C@H](CCCCN)NC(=O)[C@@H](Cc2c[nH]c3ccccc23)NC(=O)[C@H](Cc2ccccc2)NC(=O)[C@H](Cc2c(C)cc(C)cc2C)NC(=O)[C@H](CC(N)=O)NC(=O)[C@H](CCCCN)NC1=O [Compound 5, Octanoyl-L-Pro-c[L-Cys-L-Lys-L-Asn-L-Msa-L-Phe-D-Trp-L-Lys-L-Thr-L-Phe-L-Thr-L-Ser-L-Cys]-OH]

Molecule: C[C@H](N)C(=O)NCC(=O)N[C@H]1CSSC[C@@H](C(=O)O)NC(=O)[C@H](CO)NC(=O)[C@H]([C@@H](C)O)NC(=O)[C@H](Cc2ccccc2)NC(=O)[C@H]([C@@H](C)O)NC(=O)[C@H](CCCCN)NC(=O)[C@@H](Cc2c[nH]c3ccccc23)NC(=O)[C@H](Cc2cc(F)cc(F)c2)NC(=O)[C@H](Cc2ccccc2)NC(=O)[C@H](CC(N)=O)NC(=O)[C@H](CCCCN)NC1=O [Compound 6, H-L-Ala-Gly-c[L-Cys-L-Lys-L-Asn-L-Phe-L-Dfp-D-Trp-L-Lys-L-Thr-L-Phe-L-Thr-L-Ser-L-Cys]-OH]
- half-life [1]: 3.8 h

Molecule: H2N-AGc[CKNFFWKTFTSC]-OH (AGCKNFFWKTFTSC; disulfide cyclised; Somatostatin-14; DISULFID (3)..(14)) [SST-14, endogenous peptide somatostatin-14]
- NO (nitric oxide) level in supernatant (Raw 264 cells): 4.32 ng/mL
- IL-6 level in supernatant (Raw 264 cells): 4.2 ng/mL
- TNFalpha level in supernatant (Raw 264 cells): 5.21 ng/mL
- INFγ level in supernatant (T cells (splenocytes)): 2.31 ng/mL
- IL-2 level in supernatant (T cells (splenocytes)): 3.14 ng/mL
- proliferation ([3H]-thymidine incorporation) (T cells (splenocytes)): 9936

- percentage of inhibition of specific binding [2]: > 50%
- percentage of inhibition of specific binding [3]: > 50%
- percentage of inhibition of specific binding [4]: > 50%
- percentage of inhibition of specific binding [5]: > 50%
B1: Compound 9: H-L-Asp-L-Arg-L-Met-L-Pro-c[L-Cys-L-Arg-L-Asn-L-Msa-L-Phe-L-Trp-L-Lys-L-Thr-L-Phe-L-Thr-L-Ser-L-Cys]-L-Lys-OH (peptide)
peptide: H-DRMPCRN[Phe(2,4,6-Me3)]FWKTFTSCK-OH
modifications: disulfide 5-16
SMILES: CSCC[C@H](NC(=O)[C@H](CCCNC(=N)N)NC(=O)[C@@H](N)CC(=O)O)C(=O)N1CCC[C@H]1C(=O)N[C@H]1CSSC[C@@H](C(=O)N[C@@H](CCCCN)C(=O)O)NC(=O)[C@H](CO)NC(=O)[C@H]([C@@H](C)O)NC(=O)[C@H](Cc2ccccc2)NC(=O)[C@H]([C@@H](C)O)NC(=O)[C@H](CCCCN)NC(=O)[C@H](Cc2c[nH]c3ccccc23)NC(=O)[C@H](Cc2ccccc2)NC(=O)[C@H](Cc2c(C)cc(C)cc2C)NC(=O)[C@H](CC(N)=O)NC(=O)[C@H](CCCNC(=N)N)NC1=O

- percentage of inhibition of specific binding [2]: > 50%
- percentage of inhibition of specific binding [3]: > 50%
- percentage of inhibition of specific binding [4]: > 50%
- percentage of inhibition of specific binding [5]: > 50%
B2: Compound 10: Myristoyl-L-Asp-L-Arg-L-Met-L-Pro-c[L-Cys-L-Arg-L-Asn-L-Msa-L-Phe-L-Trp-L-Lys-L-Thr-L-Phe-L-Thr-L-Ser-L-Cys]-L-Lys-OH (peptide)
peptide: Myristoyl-DRMPCRN[Phe(2,4,6-Me3)]FWKTFTSCK-OH
modifications: disulfide 5-16
SMILES: CCCCCCCCCCCCCC(=O)N[C@@H](CC(=O)O)C(=O)N[C@@H](CCCNC(=N)N)C(=O)N[C@@H](CCSC)C(=O)N1CCC[C@H]1C(=O)N[C@H]1CSSC[C@@H](C(=O)N[C@@H](CCCCN)C(=O)O)NC(=O)[C@H](CO)NC(=O)[C@H]([C@@H](C)O)NC(=O)[C@H](Cc2ccccc2)NC(=O)[C@H]([C@@H](C)O)NC(=O)[C@H](CCCCN)NC(=O)[C@H](Cc2c[nH]c3ccccc23)NC(=O)[C@H](Cc2ccccc2)NC(=O)[C@H](Cc2c(C)cc(C)cc2C)NC(=O)[C@H](CC(N)=O)NC(=O)[C@H](CCCNC(=N)N)NC1=O

- percentage of inhibition of specific binding [2]: > 50%
- percentage of inhibition of specific binding [3]: > 50%
- percentage of inhibition of specific binding [4]: > 50%
- percentage of inhibition of specific binding [5]: > 50%
Molecule: H-PCKN[Phe(3,5-F2)]FWKT[Phe(2,4,6-Me3)]SSCK-NH2 (disulfide 2-13)

- percentage of inhibition of specific binding [2]: > 50%
- percentage of inhibition of specific binding [3]: > 50%
- percentage of inhibition of specific binding [4]: > 50%
- percentage of inhibition of specific binding [5]: > 50%
B3: Compound 5: Octanoyl-L-Pro-c[L-Cys-L-Lys-L-Asn-L-Msa-L-Phe-D-Trp-L-Lys-L-Thr-L-Phe-L-Thr-L-Ser-L-Cys]-OH (peptide)
peptide: Octanoyl-PCKN[Phe(2,4,6-Me3)]F[dW]KTFTSC-OH
modifications: disulfide 2-13
SMILES: CCCCCCCC(=O)N1CCC[C@H]1C(=O)N[C@H]1CSSC[C@@H](C(=O)O)NC(=O)[C@H](CO)NC(=O)[C@H]([C@@H](C)O)NC(=O)[C@H](Cc2ccccc2)NC(=O)[C@H]([C@@H](C)O)NC(=O)[C@H](CCCCN)NC(=O)[C@@H](Cc2c[nH]c3ccccc23)NC(=O)[C@H](Cc2ccccc2)NC(=O)[C@H](Cc2c(C)cc(C)cc2C)NC(=O)[C@H](CC(N)=O)NC(=O)[C@H](CCCCN)NC1=O
